Test results reported in patent US6458838B1, “Adrenoleukodystrophy treatments” (Johns Hopkins University, priority 1999, dated 2002).

Legend:
Format in all cases: cell-based
PPARα = assay: Semi-quantitative RT-PCR in primary fibroblasts
Text: In rodents PPARα expression is increased by peroxisomal proliferators. […] Thus, although the peroxisome proliferation response in mice may be, at least in part, through the documented PPARα pathway, the response in human cells seems to be through a newly discovered pathway that may involve Pex11α. […] This again indicates a newly discovered pathway for 4-PBA-induced peroxisome proliferation in humans and perhaps in rodents. AOX has been identified as the rate-limiting step in VLCFA β-oxidation.
(§1) Semi-quantitative RT-PCR analysis. Total RNA from tissue culture cells (10^6-10^7 cells/sample) was isolated using TRizol Reagent™ (Life Technologies), treated with DNase I (100-200 units in 40 mM HCI, 10 mM NaCl, 6 mM MgCl2, pH 7.3), incubated at 37° C. for 30 min, extracted with phenol/chloroform, and precipitated with isopropanol. cDNA was generated using MMLV reverse transcriptase (RT) (Life Technologies). PCR was done in the linear range of amplification (determined for each primerpair-cDNA combination). For each cDNA sample, a ‘cocktail’ was prepared, containing PCR buffer (Promega), 200 µM of each DNTP, 1.5 mM MgCl2, 250 ng cDNA, 0.25 U of Taq polymerase (Promega) and […]. The ‘cocktail’ was divided into separate tubes containing cDNA specific primers.
Primers. The PCR primers used are listed below. […]

[1] = test system: human X-ALD primary skin fibroblasts; assay: Immunofluorescence peroxisome counting; conditions: for peroxisome number, Increase / peroxisome number, Treated: 10 day exposure to 5 mM 4PBA
Text: Peroxisomes were made visible with immunofluorescence using a polyclonal antibody to the C-terminal tripeptide (SKL) peroxisome targeting signal 1 (PTS1), which is present in most peroxisomal matrix proteins. […] Slides were scanned visually and cells categorized as having low, medium or high numbers of peroxisomes. For each cell line, the number of peroxisomes is the mean of three ‘low’, four ‘medium’ and three ‘high’ cells (Table 3). There was no difference between control cells and X-ALD cells in either the number of peroxisomes per cell or in the response to 4-PBA. […] The 2.4-fold increase in the number of peroxisomes per cell was statistically significant (P<0.0000001, two-tailed Student's t-test). Peroxisome numbers obtained with an antibody against a peroxisomal membrane protein (Pex14p) gave similar results (data not shown).
Immunofluorescence and peroxisome counting. […] The anti-SKL (PTSI) antibody was a gift from S. Gould and the anti-Pex11α antibody was a gift from S. Mihalik. To count peroxisomes, we photographed immunofluorescence-stained cells after focusing on the cell nucleus, and determined the peroxisome number per cell with the aid of a colon counter after projecting the slides to enlarge the image.

ALDR mRNA = assay: Semi-quantitative RT-PCR in primary fibroblasts; conditions: 5 mM 4-PBA for 2 days
Protocol: Semi-quantitative RT-PCR was done on the mRNA isolated from these cells (FIG. 1). […] In addition, the expression of acyl-CoA oxidase (AOX), the rate-limiting enzyme in VLCFA β-oxidation, was not affected. Although previous studies have reported that ALDR mRNA was not detectable in fibroblasts by either northern or RT-PCR analyses, those RT-PCR studies used about 66 ng of CDNA; we used about 250 ng of cDNA.
as §1
Primers. The PCR primers used are listed below. In the parentheses, h indicates human and m, mouse; this is followed by the gene name, product size and annealing temperature. […]

[2] = cell line X-ALD (fs E471), first of two independent lines
[3] = cell line X-ALD (fs E471), second of two independent lines

O=C(O)CCCc1ccccc1 [4-PBA, 4-Phenyl butyrate]
PPARα expression (PPARα; human X-ALD fibroblasts, even after 10 days of treatment): unchanged | PPARα expression (PPARα; mouse X-ALD fibroblasts, as early as 2 days after treatment): increased | peroxisome number seen by immunofluorescence ([1]; 5 mM 4-PBA, after 8 days of treatment): approximately twofold increase | peroxisome number, Increase ([1]; Mean of five X-ALD cell lines): 2.5 fold | peroxisome number, Treated ([1]; Mean of five X-ALD cell lines): 1074 ± 92 peroxisomes per cell | increase in number of peroxisomes per cell ([1]; X-ALD and control cell lines combined, 10 days 5 mM 4-PBA): 2.4 fold | peroxisome number, Increase ([1]; cell line X-ALD (A626T)): 2.4 fold | peroxisome number, Treated ([1]; cell line X-ALD (A626T)): 968 ± 349 peroxisomes per cell | peroxisome number, Increase ([1]; cell line X-ALD (R591Q)): 2.8 fold | peroxisome number, Treated ([1]; cell line X-ALD (R591Q)): 1159 ± 363 peroxisomes per cell | peroxisome number, Increase ([1]; cell line X-ALD (exon 7-10del)): 2.6 fold | peroxisome number, Treated ([1]; cell line X-ALD (exon 7-10del)): 1164 ± 378 peroxisomes per cell | peroxisome number, Increase [1, 2]: 2.2 fold | peroxisome number, Treated [1, 2]: 992 ± 344 peroxisomes per cell | peroxisome number, Increase [1, 3]: 2.7 fold | peroxisome number, Treated [1, 3]: 1089 ± 365 peroxisomes per cell | peroxisomes per cell after exposure, combined results ([1]; five X-ALD and four control cell lines combined, 10 days 5 mM 4-PBA, 416±27 before exposure): 1014±108 peroxisomes per cell | ALDR mRNA levels (ALDR mRNA; normal and X-ALD human primary fibroblasts): substantial increase | ALDR mRNA levels (ALDR mRNA; normal and X-ALD mouse primary fibroblasts): substantial increase
